The target in one assay is T1, COX2 (h) (Homo sapiens, UniProt P35354).
T1 construct: host or cells: Sf9 cells
T1 sequence (P35354 18-604): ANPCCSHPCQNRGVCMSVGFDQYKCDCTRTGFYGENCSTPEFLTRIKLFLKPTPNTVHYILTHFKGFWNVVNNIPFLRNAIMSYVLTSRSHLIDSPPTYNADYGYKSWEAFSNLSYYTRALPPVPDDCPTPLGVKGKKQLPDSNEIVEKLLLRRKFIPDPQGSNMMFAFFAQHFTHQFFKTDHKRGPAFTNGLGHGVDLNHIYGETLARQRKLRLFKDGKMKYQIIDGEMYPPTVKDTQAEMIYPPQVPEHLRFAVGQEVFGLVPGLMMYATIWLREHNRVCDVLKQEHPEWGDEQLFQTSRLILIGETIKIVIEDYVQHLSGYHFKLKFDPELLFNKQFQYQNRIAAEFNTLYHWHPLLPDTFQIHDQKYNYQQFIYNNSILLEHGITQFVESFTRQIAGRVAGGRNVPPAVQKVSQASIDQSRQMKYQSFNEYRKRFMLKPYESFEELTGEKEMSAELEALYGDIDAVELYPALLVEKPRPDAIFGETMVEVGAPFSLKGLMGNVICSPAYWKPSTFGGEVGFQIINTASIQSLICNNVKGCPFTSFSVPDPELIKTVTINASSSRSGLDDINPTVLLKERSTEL
Kind of assay: COX2 enzyme assay. It counts as biochemical. The procedure: The assay was performed according to the procedure described in Glaser, European Journal of Pharmacology, 281:107-111, 1995, which is incorporated by reference. Recombinant enzymes were reconstituted in buffer. The enzyme preparations were preincubated with DMSO vehicle or compounds in DMSO for 5 min at 37° C. and the human recombinant enzyme expressed in Sf9 cells.
(§1) An inhibition greater than about 50% represented significant effects of the test compound. An inhibition of about 25% to about 50% was indicative of weak to moderate effects. An inhibition less than about 25% are not considered significant and may be primarily attributable to variability of the signal around the control level.

In assay [1] the test system is acetic acid-induced writhing responses. Kind of assay: acetic acid writhing test (abdominal irritant test), Example 10. It counts as in vivo, C57/B16 mice. The procedure:
This example compares the antinociception (animal equivalent of analgesia) produced by the oral administration of 5-hydroxy-7-methyloxindole vs. acetaminophen. Initial studies were performed using 10% DMSO/Cremophor™ as the vehicle. To enable a comparison with other datasets, 5-hydroxy-7-methyloxindole was subsequently tested using 6% Tween 20® reagent as the vehicle.
Male C57/B16 mice (Taconic), 8 weeks of age, were used in this study. The mice were received at Drexel University at least one week prior to testing and housed in standard polycarbonate cages with filter tops. Experiments were done in accordance with the guidelines of the National Institutes of Health and with the guidelines of the Committee for Research and Ethical Issues of IASP and were approved by the Animal Care and Use Committee of Drexel University College of Medicine. Four to five animals were housed per cage and food and water were provided ad libitum. Prior to initiation of the study, the animals were examined to assure adequate health and suitability. Mice were maintained on a 12/12 light/dark cycle and room temperature was maintained between 20 and 23° C. with a relative humidity maintained between 30% and 70%.
Compounds were administered orally 10 mL/kg, with a 30 minute pretreatment time. All compounds were tested in naïve animals. […] Each compound was dissolved in DMSO as a stock solution and mixed with Cremophor™ (1:1 v/v) before testing. The mixed solutions were diluted 1:4 with sterile water (the final concentration of DMSO/Cremophor™ reagent was 10%) immediately before administration to maximize the amount of compound in solution and improve the uniformity of any compound substance remaining in suspension. It is possible that some of the drug was in suspension at the time of administration. Each compound was initially tested in 5 mice at a dose of 300 mg/kg in the writhing test to assess their ability to alleviate abdominal pain. Based on the results of the initial test, the dose-response relationship for each active compound was determined by measuring the level of analgesia produced by at least 3 escalating doses of the test compound. The measurement of inhibition of writhing for acetaminophen and 5-hydroxy-7-methyloxindole were repeated using 6% Tween® 20 reagent as the vehicle. In this case, both compounds were clearly in suspension when administered to the animals.
A modified version of the standard abdominal irritant test was used to assess analgesia. Mice were habituated for 1 h in a transparent test box (5×5×10 inches) before any injections. Vehicle or test compound was administered p.o. (per os) 30 min prior to an intraperitoneal (i.p.) injection of 0.6% acetic acid (10 mL/kg) and the number of writhing responses (stretching of the hind limbs accompanied by a contraction of the abdominal muscles) to the acetic acid injection were counted over the subsequent 30 min period. The mice from each cage were randomly assigned to the dosing groups and the mice from each group were injected in a random order.
The one-way ANOVA was used to determine significant difference from the vehicle control treated animal. Dose response data for 5-hydroxy-7-methyloxindole was fit by non-linear regression analysis to a logit model to provide an estimate of ED50.
In general terms: Writhing tests count abdominal constrictions after an irritant is injected.

Another assay relates to opioid receptor. Briefly: opioid receptor binding assay, non-selective, [3H]-naloxone. Details: species or system rat. The procedure: The non-selective assay was performed according to the procedure described in Childers, European Journal of Pharmacology, 55:11-18, 1979, which is incorporated by reference. In summary, adult Male Sprague-Dawley rats were killed by decapitation and the brains rapidly removed and placed in ice-cold buffer. The cerebral cortex was dissected and homogenized in buffer and the homogenates were further centrifuged. The binding experiments were performed at 25° C. for 40 min. Reaction mixtures contained tissue suspension, unlabeled drug and [^3H]-naloxone (1 nM) radioligand.
as §1

In general, inhibition refers to the relative decrease from the control value, in per cent. For orientation: ED50 means the dose at which the effect has come halfway, by size or by number of responders.

For `Cc1cc(O)cc2c1NC(=O)C2` [5-hydroxy-7-methyloxindole, 5-Hydroxy-7-methyloxindole], the “binding to COX2 receptor, in words” value at COX2 (h) was “binds minimally, if at all”. In addition, at COX2 (h) (test concentration 1 × 10^−5 M, human recombinant enzyme expressed in Sf9 cells), the inhibition at 10 µM was -6.8%. In addition, the “inhibition of acetic acid-induced response (writhing)” value in assay [1] (C57/B16 mice, p.o. 30 min before i.p. 0.6% acetic acid, 10% DMSO/Cremophor vehicle, 30 to 300 mg/kg, FIG. 2, 3) is “robust and dose-related inhibition”; in assay [1] (C57/B16 mice, p.o., 6% Tween 20 vehicle (suspension), 100 and 300 mg/kg, FIG. 5, 6) it was “the highest dose produced an effect comparable to that observed with the DMSO/Cremophor™ vehicle”. The ED50 in assay [1] (Mus musculus, po, C57/B16 mice, p.o., 10% DMSO/Cremophor vehicle, FIG. 4, read-out: ED50 (logit model fit of dose-response)) is 76 mg/kg. In addition, in assay [1] (mouse model, oral, summary statement), the “oral antinociceptive (analgesic) effect compared with acetaminophen” value is “equal to, and was slightly more potent than, acetaminophen”. For the same compound, the “binding to opioid receptor, in words” value in the assay with opioid receptor was “binds minimally, if at all”. Besides, the “Mean Inhibition (%)” value in the assay on opioid receptor (test concentration 1 × 10^−5 M, rat cerebral cortex, [3H]-naloxone 1 nM) is listed as −9.7%.

For the origin of these results see US10537552B2, “Substituted 5-hydroxyoxindoles and their use as analgesics and fever reducers” (CARAFE DRUG INNOVATION, LLC, priority 2015, dated 2020).
